How the values were obtained:
[1] = test system: RM1.PGLS cells; assay: Phagocytosis of PSMA expressing RM1.PGLS cells by IFN-γ primed U937 cells; assay type: cell-based; details: IFN-γ primed U937 effectors
Method: Target cell passing: Three days before the experiments, a plate of target cells, RM1.PGLS cells were passed into a new flask.
Effector cell priming: Three days before the experiments, a plate of U937 cells (approximately 60% confluent) was passed into a new Petri dish (10 mL colored ADCP media total volume). IFN-γ (20 μL, 100 μg/mL in DPBS) was added, and the cells were maintained in an incubator (37° C., 24 h). The cells were transferred into a Falcon tube, and DiD (19 uL, final concentration=1.9 μM) was added. The cells were maintained in an incubator (37° C., 30 min), pelleted, aspirated, resuspended in colored ADCP media (10 mL), and split equally into two Petri dishes. To each dish were added additional colored ADCP media (5 mL) and IFN-γ (20 μL, 100 μg/mL in DPBS), and the cells were maintained in an incubator (37° C., 24 h).
Target cell preparation: To a plate of target cells (60-80% confluent RM1.PGLS cells 10 mL total media volume) was added DiO (20 μL, final concentration=2 μM). The cells were maintained in an incubator (37° C., 30 min), aspirated, and washed with colored ADCP media (3×10 mL). Colored ADCP media (10 mL) was added. The cells were maintained in an incubator (37° C., 2 h), detached and resuspended in color-free ADCP media at a concentration of 0.5 million cells per mL.
Effector cell preparation: Both dishes of primed U937 cells were transferred into a Falcon tube, pelleted, aspirated, resuspended in color-free ADCP media (10 mL), counted, and diluted with color-free ADCP media to give a final concentration of 2 million cells per mL.
Phagocytosis: All conditions were run in triplicate. For each experiment, into a sterile 2 mL Eppendorf tube were added color-free ADCP media (25 μL) containing either various concentrations of SyAM-Px or ARM-P8/Anti-DNP antibody, target cells (25 μL=12,500 cells), and effector cells (50 μL=100,000 cells), to give an effector-to-target ratio of 8:1. Tubes were gently agitated by hand. The cells were pelleted (2 min, 1100 rpm). The tubes were opened, maintained in an incubator (37° C., 1 h), resuspended by briefly agitating with a vortex, and analyzed by flow cytometry.

[2] = target: T1, FcγRI (Homo sapiens, UniProt P12314); assay: IIA1.6 FcγRI expressing cell binding assay; details: biotin-functionalized compound, fluorescent streptavidin
T1 construct: host or cells: IIA1.6 cells
Method: Peptide dilutions have been prepared in DMSO usually starting form 1 mM stock solution with further 10 fold dilution. Cells IIa1.6 stably transfected with FcγRIA/γ-chain and non-transfected IIa1.6 cells used as isogenic negative control, were grown to approximately 1.5-2×10^6 cells/mL density, spun down and reconstituted in RPMI 1640 medium without phenol red, supplemented with 10% FBS and Pen/Strep mixture to cell density 1×10^6 cells/mL. A 100 uL aliquot of cells was further transferred into an eppendorf tube and left to cool on ice for 5-10 minutes. Following this 1 uL of peptide dissolved in DMSO was added to the cells, bringing final concentration of DMSO to 1%. After 1 hour incubation on ice with a peptide 5 uL of Streptavidin-Alexafluor 488 (2 mg/mL) was added to the cells and left incubating on ice for 30-60 minutes. After the incubation cells were washed two times with 1 mL of cold RPMI1640 medium without phenol red, supplemented with 10% FBS and Pen/Strep and finally washed once in 1 mL TBS Buffer (150 mM NaCl and 25 mM Tris, pH 7.4). Cells were resuspended in residual TBS buffer (usually ˜100 uL) and analyzed via flow cytometry with detection in the FL1 channel.

[3] = test system: PSMA coated beads; assay: ROS production (superoxide burst, lucigenin) by primed U937 cells against PSMA coated beads; assay type: cell-based; details: PSMA labeled beads, target dependent
Method: Three days before the experiments, a plate of U937 cells (approximately 60% confluent) was passed into a new Petri dish (10 mL colored RPMI growth media total volume). IFN-γ (20 μL, 100 μg/mL in DPBS) was added, and the cells were maintained in an incubator (37° C., 24 h). The cells were pelleted after 24 hours and resuspended in 10 mL of IFN-γ (20 uL, 100 ug/mL in DPBS) and maintained in an incubator (37° C., 24 h)
For ROS production cells were resuspended in RPMI growth media (10 mL), and split equally into two Petri dishes. To each dish were added additional colored RPMI growth media (5 mL) and IFN-γ (20 μL, 100 μg/mL in DPBS), and maintained in an incubator (37° C., 24 h)
Primed U937 were suspended in color-free ADCP media at a concentration of 3×10^5 U937 cells and mixed with 10^5 PSMA coated beads and various concentrations of molecules in a 96 well plate in a volume of 90 uL. To each well was added 10 μl of 2.5 mM lucigenin (Tokyo Chemicals) solution to bring the total volume to 100 μl. The plate was centrifuged at 200 rcf for 2 minutes (PLATE SPINNER). The chemiluminescence was then measured at two minute intervals by plate reader (Biotek Synergy 2) for 60 to 90 minutes.

[4] = test system: RM1.PGLS cells; assay: Superoxide burst (lucigenin) by primed U937 cells against RM1.PGLS cells; assay type: cell-based; details: IFN-γ primed U937 effectors
From the text: Since SyAM-P1 was able to induce effector-cell mediated responses against target protein coated beads, the inventors then evaluated if the molecule can elicit the effects against PSMA expressing cells. To that end, the inventors evaluated the SyAM-P1 induced immune responses by primed U937 effector cells against PSMA expressing RM1.PGLS cells. They tested the U937-mediated immune effects by evaluating both superoxide burst and phagocytosis of effector cells, analogous to the protein coated bead experiments. In this experiment, IFN-γ primed U937 cells were incubated with PSMA expressing RM1.PGLS cells, and treated with various concentrations of SyAM-P1. The resulting superoxide burst response was measured using the lucigenin assay (data not shown). Additionally, primed U937 cells (stained with DiD, an FL4 membrane dye) were incubated with target RM1.PGLS cells (stained with […], an FL1 membrane dye), in the presence of various concentrations of SyAM-P 1. The resulting phagocytosis—indicated by FL1 and FL4 double positive cells—was measured using two-color flow-cytometry. As a positive control, ARM-P8 combined with anti-DNP antibodies was utilized. […] The positive response seen with the Arm-P8 control, could potentially be attributed to the ability of antibodies to ligate both FcγRI and FcγRIIA on the immune effector cells, increasing immune signaling and phagocytic responses.

[5] = target: T2, PSMA on RM1.PGLS cells (Homo sapiens, UniProt Q04609); assay: Binding to PSMA on RM1.PGLS cells (flow cytometry); details: biotin-functionalized compound, fluorescent streptavidin
T2 construct: host or cells: RM1.PGLS cells
From the text: Accordingly, the inventors first synthesized the SyAM-P1 molecule, using Fmoc solid phase peptide synthesis to connect the two moieties (FIG. 2). As a consequence of that chemical synthesis the inventors tried to determine whether linking the two moieties would influence their ability to bind their respective protein targets, in a selective manner (FIG. 3A,B). The inventors thereafter evaluated the ability of the first-generation of SyAM-P molecules, identified as SyAM-P1, to bind PSMA on RM1.PGLS cells (FIG. 3A) or FcγRI on IIA1.6 cells (FIG. 3B). These experiments were conducted using SyAM-P1 molecules that were functionalized with biotin, and the bound SyAM-P1 was detected using a fluorescently labeled streptavidin, via flow-cytometry.
The binding of each SyAm derivative to PSMA was evaluated on PSMA-coated beads. 6 μm streptavidin labeled beads (Polysciences) were incubated with 400 μg/ml recombinant avi-tagged-PSMA protein for 30 minutes. Beads were washed twice with PBS, blocked with 1 mg/ml biotin for 30 minutes and then washed twice with TBS-A. 10^5 beads were incubated with a dilution series of SyAm ranging from 1 μM-100 pM. Streptavidin-Alexa467 (Invitrogen) was added to a final concentration of 3.3 μM. Samples were incubated on ice for 30 minutes, washed twice with DPBS, and evaluated by an Accuri C6 flow cytometer. […]

[6] = target: T3, FcγRI on IIA1.6 cells and soluble recombinant human PSMA (Homo sapiens, UniProt P12314+Q04609); assay: Ternary complex formation between FcγRI expressing IIA1.6 cells and soluble PSMA; assay type: binding; details: probed with phycoerythrin anti-PSMA antibody
T3 construct: soluble recombinant human PSMA; Avi-tag; expressed in transfected cells; host or cells: IIA1.6 cells (FcγRI); PSMA added as soluble recombinant protein
Method: The inventors next evaluated SyAM-P1's ability to induce ternary complex formation, using soluble PSMA and FcγRI expressing cells (IIA1.6 cells) (FIG. 3c). The binding of PSMA to the cells was probed with a phycoerythrin anti-PSMA antibody, and was analyzed using flow cytometry.

T2 sequence (Q04609 whole entry): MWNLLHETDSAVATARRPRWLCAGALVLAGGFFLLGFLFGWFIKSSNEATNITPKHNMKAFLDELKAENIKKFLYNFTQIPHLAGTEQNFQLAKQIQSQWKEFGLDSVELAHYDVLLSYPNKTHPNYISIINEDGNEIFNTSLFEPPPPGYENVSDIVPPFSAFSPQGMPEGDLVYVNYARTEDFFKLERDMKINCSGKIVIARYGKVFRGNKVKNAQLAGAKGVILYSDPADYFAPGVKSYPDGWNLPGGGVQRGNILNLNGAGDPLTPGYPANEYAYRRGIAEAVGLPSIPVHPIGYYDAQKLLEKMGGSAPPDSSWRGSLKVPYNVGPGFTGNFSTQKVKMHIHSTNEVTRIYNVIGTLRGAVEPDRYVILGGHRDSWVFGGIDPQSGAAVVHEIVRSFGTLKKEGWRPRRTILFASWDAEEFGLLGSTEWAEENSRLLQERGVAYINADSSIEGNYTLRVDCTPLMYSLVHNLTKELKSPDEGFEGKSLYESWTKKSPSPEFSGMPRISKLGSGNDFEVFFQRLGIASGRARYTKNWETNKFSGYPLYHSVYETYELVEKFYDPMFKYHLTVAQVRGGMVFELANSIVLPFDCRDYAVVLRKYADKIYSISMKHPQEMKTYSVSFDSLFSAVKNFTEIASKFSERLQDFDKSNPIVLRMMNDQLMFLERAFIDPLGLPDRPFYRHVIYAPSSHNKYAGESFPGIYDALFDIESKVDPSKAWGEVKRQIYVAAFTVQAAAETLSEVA
T3 sequence (P12314 16-374): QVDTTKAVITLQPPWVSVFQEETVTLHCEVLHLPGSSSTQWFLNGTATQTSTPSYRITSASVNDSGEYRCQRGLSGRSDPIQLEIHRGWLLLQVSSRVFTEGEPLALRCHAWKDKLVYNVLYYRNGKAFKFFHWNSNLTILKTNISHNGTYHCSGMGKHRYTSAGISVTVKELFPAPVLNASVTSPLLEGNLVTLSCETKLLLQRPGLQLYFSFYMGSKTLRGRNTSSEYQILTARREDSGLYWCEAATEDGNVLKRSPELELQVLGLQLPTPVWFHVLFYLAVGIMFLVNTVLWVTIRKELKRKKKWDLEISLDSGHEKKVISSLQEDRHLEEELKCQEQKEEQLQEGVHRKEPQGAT
T3 sequence (Q04609 44-750 limits assumed): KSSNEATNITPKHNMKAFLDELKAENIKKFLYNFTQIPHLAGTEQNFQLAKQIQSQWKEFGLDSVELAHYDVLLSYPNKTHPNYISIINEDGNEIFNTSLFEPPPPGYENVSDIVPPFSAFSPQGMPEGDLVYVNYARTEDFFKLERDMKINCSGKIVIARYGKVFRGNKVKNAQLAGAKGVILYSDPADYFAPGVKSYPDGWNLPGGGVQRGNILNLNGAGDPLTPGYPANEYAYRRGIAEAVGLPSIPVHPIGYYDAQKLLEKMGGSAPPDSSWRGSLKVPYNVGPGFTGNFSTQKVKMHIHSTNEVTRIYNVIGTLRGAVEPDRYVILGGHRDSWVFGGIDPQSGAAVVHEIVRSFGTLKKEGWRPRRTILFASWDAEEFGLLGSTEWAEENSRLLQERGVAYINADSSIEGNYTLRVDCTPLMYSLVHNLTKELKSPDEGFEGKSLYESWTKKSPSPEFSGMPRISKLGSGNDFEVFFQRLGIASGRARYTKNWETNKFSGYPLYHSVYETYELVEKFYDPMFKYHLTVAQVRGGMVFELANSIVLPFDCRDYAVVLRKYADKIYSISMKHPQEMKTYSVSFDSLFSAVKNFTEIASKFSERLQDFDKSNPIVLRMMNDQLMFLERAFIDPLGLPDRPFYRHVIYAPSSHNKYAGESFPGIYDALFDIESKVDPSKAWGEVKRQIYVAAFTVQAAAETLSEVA
T3 sequence (P30273 19-86 partner): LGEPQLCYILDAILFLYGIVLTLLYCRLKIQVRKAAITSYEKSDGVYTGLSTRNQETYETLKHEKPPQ
T1 sequence (P12314 16-374): as the sequence (P12314 16-374) above
T1 sequence (P30273 19-86 partner): as the sequence (P30273 19-86 partner) above

CC(=O)N[C@H](C(=O)N[C@@H](CC(N)=O)C(=O)N[C@@H](CO)C(=O)N[C@H]1CSSC[C@@H](C(=O)NCC(=O)N[C@@H](CC(=O)O)C(=O)N[C@@H](CC(=O)O)C(=O)N[C@@H](CCCCNC(=O)CCCC[C@@H]2SC[C@@H]3NC(=O)N[C@@H]32)C(=O)NCCCCCC(=O)NCCCCCC(=O)NCCCCCC(=O)NCCCCCC(=O)NCCCCCC(=O)N[C@@H](CCCCNC(=O)CCCCc2cn(CCCC[C@H](NC(=O)N[C@@H](CCC(=O)O)C(=O)O)C(=O)O)nn2)C(=O)NCC(N)=O)NC(=O)CNC(=O)[C@H](CC(C)C)NC(=O)[C@H](CC(C)C)NC(=O)[C@H](CC(N)=O)NC(=O)[C@@H]2CCCN2C(=O)[C@H](CC(C)C)NC(=O)[C@H](CC(C)C)NC(=O)[C@H](CC(C)C)NC1=O)C(C)C [SyAM-P1]
phagocytosis of RM1.PGLS cells (in words) [1]: unable to induce any immune responses
binding to FcγRI on IIA1.6 cells [2]: capability to bind to its respective targets
concentration at which superoxide burst is induced [3]: 100 nM
superoxide burst against RM1.PGLS cells (in words) [4]: unable to induce any immune responses
binding to PSMA on RM1.PGLS cells [5]: capability to bind to its respective targets
ternary complex formation [6]: mediated through SyAM-P1
